The nature of this assay: A673 Ewing sarcoma viability loss – cell-based, CellTiter-Glo luminescence, cherry-pick retest, confirmation (AID 720587). The following applies: A673 Ewing sarcoma viability, CellTiter-Glo ATP luminescence, 72 h. For orientation: Cellular ATP, detected with luciferase, serves as a proxy for viable cell number.

Active and inactive are the calls of the source.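 The calls were made as follows: active = fitted curve reaches -35% activity change at a concentration below twice the top valid dose tested; inactive = the rest, including effects opposite to the expected direction.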

Take `Cc1ccc(/C=C/C(=O)N2CCN(S(=O)(=O)c3c(C)c(C)cc(C)c3C)CC2)o1`: the activity change, negative = cytotoxicity (at 26 µM (top of the series)) was 4.87% (inactive). Take `COC(=O)C[C@@H]1CC[C@@H]2[C@H](COc3ccc(NC(=O)c4ccccc4)cc3C(=O)N2C)O1`: where the note is “at 26 µM (top of the series)”, the activity change, negative = cytotoxicity was -5.14% (inactive).

For `Nc1ccc(Oc2cccc(Oc3ccc(N)cc3)c2)cc1`, the activity change, negative = cytotoxicity (at 26 µM (top of the series)) is -3.72% (inactive). Still for that read-out and setting: the figure for `O=C1NC(=O)N(CCc2ccc(F)cc2)C(=O)/C1=C/C=C/c1ccccc1` is 0.109% (inactive); for `COc1ccc2nc(-c3ccc(F)cc3)sc2c1` it is -14.9% (inactive); for `COc1ccccc1-c1cn(CC[C@H]2CC[C@@H](NC(=O)C3CCCC3)[C@@H](CO)O2)nn1` it is 6.63% (inactive).

`O=C(Nc1cccc(Oc2ccc3c(c2)C(=O)NC3=O)c1)c1cccs1`: the activity change, negative = cytotoxicity (at 26 µM (top of the series)) is -6.77% (inactive).

Consider `COC(=O)c1cccc(NC(=O)NC(=O)c2ccccc2Cl)c1`, for which, under “at 26 µM (top of the series)”, the activity change, negative = cytotoxicity was -9.77% (inactive). For the compound `COc1ccc(/C=C2/SC(=S)N(CCCC(=O)Nc3ccccc3C(=O)O)C2=O)cc1`, under “at 26 µM (top of the series)”, the activity change, negative = cytotoxicity is 5.45% (inactive). On the same count and under the same terms, for `Cc1ccc2oc(/N=C(\N)NC(=O)C(C)(C)C)nc2c1` the value was -3.45% (inactive); for `Cc1noc(C)c1NC(=O)Nc1ccc2c(c1)CC(=O)N([C@@H](C)CO)C[C@@H](C)[C@@H](CN(C)Cc1ccc(Cl)c(Cl)c1)O2`, 0.825% (inactive). Same read-out and setting: for `COc1ccc(N=C(NN)c2ccc3ccccc3n2)cc1` the value was -15.8% (inactive); for `COCCCNc1ccn2nc(-c3ccccc3)cc2n1`, 0.68% (inactive). The same measure, in the same setting: the figure for `CCc1cnc(N2[C@H](C#N)[C@H](c3ccc(C#Cc4ccccc4F)cc3)[C@H]2CO)s1` is -10.8% (inactive); for `COc1ccc(/C=C2\SC(=S)N(CCCC(=O)Nc3ccc(O)cc3)C2=O)cc1` it is -14.2% (inactive); for `CCOC(=O)c1c(-c2ccc(C)cc2)csc1NC(=O)CCN1CCOCC1` it is 3.44% (inactive). Turning to `O=C(C[C@@H]1CC[C@@H]2[C@H](COC[C@@H](O)CN2S(=O)(=O)c2ccc(F)cc2)O1)NCc1ccc(Cl)c(Cl)c1`, the activity change, negative = cytotoxicity (at 26 µM (top of the series)) was 8.17% (inactive). The same measure, in the same setting: the figure for `Cc1[nH]c(=S)sc1Cc1ccc(Cl)c(Cl)c1` is 5.33% (inactive); for `CC(=O)Nc1ccc(S(=O)(=O)Nc2ccc(N3CCCCC3)cc2)cc1` it is -16.3% (inactive). Same read-out and setting: the figure for `O=C(CN1C(=O)c2ccccc2S1(=O)=O)c1ccc(F)cc1` is -6.39% (inactive); for `Cc1ccc(NC(=O)COC(=O)c2ccc3c(c2)OCO3)cc1S(=O)(=O)N1CCCCC1` it is -4.65% (inactive). In the case of `Cc1occc1-c1n[nH]c(=S)n1C`, the activity change, negative = cytotoxicity (at 26 µM (top of the series)) was 1.91% (inactive).

On to `CCCCN=C(NNc1ccc(Br)cc1)C(=O)OCC`, for which the activity change, negative = cytotoxicity (at 26 µM (top of the series)) is -5.32% (inactive). The same measure, in the same setting: for `CCc1ccc(/C=C2\SC(=S)N(CCCC(=O)NC3=NCCS3)C2=O)cc1` the value was 1.62% (inactive); for `CCNC(=O)[C@@H]1[C@@H](CO)[C@@H]2Cn3c(ccc(C4=CCCCC4)c3=O)[C@H]1N2CC`, -1.43% (inactive); for `COc1ccc(/C=N/Nc2ccc(C(=O)O)cc2)cc1Br`, -2.31% (inactive). Same read-out and setting: for `N#C[C@@H]1[C@H](c2ccc(C#Cc3ccccc3F)cc2)[C@@H](CO)N1C(=O)c1cccnc1` the value was 1.54% (inactive); for `CCc1ccc(/C=C2\SC(=S)N(CCC(=O)Nc3cc(C)on3)C2=O)cc1`, 6.27% (inactive); for `COc1ccc(C(=O)OCC(=O)Nc2ccc(Cl)c(C(F)(F)F)c2)c(OC)c1OC`, 2.74% (inactive). Same read-out and setting: the figure for `C(=N\Nc1ccc2ccccc2n1)/c1ccc2c(c1)OCCO2` is -22.2% (inactive). Consider `COc1ccc(NS(=O)(=O)c2cc(NC(=O)CNC(=O)c3cccc(OC)c3)ccc2C)cc1`, for which the activity change, negative = cytotoxicity (at 8 µM (top of the series)) was 12.2% (inactive).

On to `CCN1CCN(/C=N/c2nc3c(s2)CCCC3)CC1`, for which, where the note is “at 26 µM (top of the series)”, the activity change, negative = cytotoxicity was -1.1% (inactive). On to `CC1(CCc2ccccc2)NC(=O)N(CC(=O)N2CC(=O)Nc3ccccc32)C1=O` (stereo not given), for which the activity change, negative = cytotoxicity (at 26 µM (top of the series)) is 7.32% (inactive).

Consider `COc1ccccc1NC(=O)N1[C@@H]2CNC[C@H]1[C@@H]2c1ccc(-c2ccc(C#N)cc2)cc1`, for which, where the note is “at 23.5 µM (top of the series)”, the activity change, negative = cytotoxicity is 13.3% (inactive).

For the compound `Cc1ccc(S(=O)(=O)N(C)C[C@H]2Oc3c(cccc3N(C)C)C(=O)N([C@@H](C)CO)C[C@@H]2C)cc1`, the activity change, negative = cytotoxicity (at 26 µM (top of the series)) is -1.85% (inactive).

The values are drawn from PubChem BioAssay AID720587 (Broad Institute, 2013).
